Laboratory results taken from the NIST ThermoML archive (doi:10.1016/j.fluid.2015.10.026).

Conditions: Brillouin light scattering

CCC(C)(C)OC [2-methoxy-2-methylbutane]
Conditions | speed of sound [m/s]
443.15 K, 2500 kPa, Liquid | 537.57
443.15 K, 4000 kPa, Liquid | 561.49
443.15 K, 5500 kPa, Liquid | 584.45
443.15 K, 7000 kPa, Liquid | 606.46
443.15 K, 8500 kPa, Liquid | 627.51
443.15 K, 10000 kPa, Liquid | 647.61
453.15 K, 660 kPa, Liquid | 468.81
453.15 K, 2500 kPa, Liquid | 495.6
453.15 K, 4000 kPa, Liquid | 520.74
453.15 K, 5500 kPa, Liquid | 544.94
453.15 K, 7000 kPa, Liquid | 568.2
453.15 K, 8500 kPa, Liquid | 590.53
453.15 K, 10000 kPa, Liquid | 611.92
463.15 K, 820 kPa, Gas | 194.03
463.15 K, 820 kPa, Liquid | 424.99
463.15 K, 2500 kPa, Liquid | 453.48
463.15 K, 4000 kPa, Liquid | 479.86
463.15 K, 5500 kPa, Liquid | 505.34
463.15 K, 7000 kPa, Liquid | 529.91
463.15 K, 8500 kPa, Liquid | 553.58
463.15 K, 10000 kPa, Liquid | 576.34
473.15 K, 1010 kPa, Gas | 187.27
473.15 K, 1010 kPa, Liquid | 380.39
473.15 K, 4000 kPa, Liquid | 438.87
473.15 K, 5500 kPa, Liquid | 465.66
473.15 K, 7000 kPa, Liquid | 491.59
473.15 K, 8500 kPa, Liquid | 516.66
473.15 K, 10000 kPa, Liquid | 540.87
483.15 K, 1240 kPa, Gas | 179.96
483.15 K, 1240 kPa, Liquid | 334.95
483.15 K, 4000 kPa, Liquid | 397.75
483.15 K, 5500 kPa, Liquid | 425.9
488.15 K, 1370 kPa, Gas | 175.42
488.15 K, 1370 kPa, Liquid | 311.9
493.15 K, 1520 kPa, Gas | 169.9
493.15 K, 1520 kPa, Liquid | 288.63
493.15 K, 4000 kPa, Liquid | 356.51
493.15 K, 5500 kPa, Liquid | 386.06
498.15 K, 1680 kPa, Gas | 163.13
498.15 K, 1680 kPa, Liquid | 265.12
498.15 K, 4000 kPa, Liquid | 335.85
498.15 K, 5500 kPa, Liquid | 366.12
503.15 K, 1860 kPa, Gas | 154.8
503.15 K, 1860 kPa, Liquid | 241.38
503.15 K, 4000 kPa, Liquid | 315.16
503.15 K, 5500 kPa, Liquid | 346.15
508.15 K, 2060 kPa, Gas | 144.62
508.15 K, 2060 kPa, Liquid | 217.4
508.15 K, 4000 kPa, Liquid | 294.43
508.15 K, 5500 kPa, Liquid | 326.16
513.15 K, 2270 kPa, Gas | 132.28
513.15 K, 2270 kPa, Liquid | 193.18
513.15 K, 4000 kPa, Liquid | 273.68
513.15 K, 5500 kPa, Liquid | 306.15
518.15 K, 2500 kPa, Gas | 117.47
518.15 K, 2500 kPa, Liquid | 168.7
518.15 K, 4000 kPa, Liquid | 252.89
518.15 K, 5500 kPa, Liquid | 286.12
523.15 K, 2760 kPa, Gas | 99.85
523.15 K, 2760 kPa, Liquid | 143.98
523.15 K, 4000 kPa, Liquid | 232.08
523.15 K, 5500 kPa, Liquid | 266.07
537.15 K, 5000 kPa, Fluid (supercritical or subcritical phases) | 228.75
537.15 K, 6000 kPa, Fluid (supercritical or subcritical phases) | 279.45
538.63 K, 4000 kPa, Fluid (supercritical or subcritical phases) | 166.74
540.07 K, 7000 kPa, Fluid (supercritical or subcritical phases) | 308.01
547.15 K, 5000 kPa, Fluid (supercritical or subcritical phases) | 173.14
547.15 K, 6000 kPa, Fluid (supercritical or subcritical phases) | 231.15
548.05 K, 7000 kPa, Fluid (supercritical or subcritical phases) | 273.71
548.23 K, 4000 kPa, Fluid (supercritical or subcritical phases) | 93.78
557.15 K, 5000 kPa, Fluid (supercritical or subcritical phases) | 137.45
557.15 K, 6000 kPa, Fluid (supercritical or subcritical phases) | 185.53
557.95 K, 4000 kPa, Fluid (supercritical or subcritical phases) | 114.59
558.89 K, 7000 kPa, Fluid (supercritical or subcritical phases) | 235.39
567.15 K, 5000 kPa, Fluid (supercritical or subcritical phases) | 122.01
567.15 K, 6000 kPa, Fluid (supercritical or subcritical phases) | 152.32
567.35 K, 4000 kPa, Fluid (supercritical or subcritical phases) | 139.87
568.4 K, 7000 kPa, Fluid (supercritical or subcritical phases) | 200.04
577 K, 5000 kPa, Fluid (supercritical or subcritical phases) | 139.01
577 K, 6000 kPa, Fluid (supercritical or subcritical phases) | 140.84
577.42 K, 7000 kPa, Fluid (supercritical or subcritical phases) | 176.29
577.5 K, 4000 kPa, Fluid (supercritical or subcritical phases) | 156.64
586.07 K, 7000 kPa, Fluid (supercritical or subcritical phases) | 158.23
586.09 K, 6000 kPa, Fluid (supercritical or subcritical phases) | 146.23
586.58 K, 4000 kPa, Fluid (supercritical or subcritical phases) | 172.49
586.8 K, 5000 kPa, Fluid (supercritical or subcritical phases) | 155.55
597.62 K, 7000 kPa, Fluid (supercritical or subcritical phases) | 156.64
598.22 K, 6000 kPa, Fluid (supercritical or subcritical phases) | 159.43
599.01 K, 5000 kPa, Fluid (supercritical or subcritical phases) | 172.16
599.67 K, 4000 kPa, Fluid (supercritical or subcritical phases) | 188.97
607.67 K, 7000 kPa, Fluid (supercritical or subcritical phases) | 165.36
608.42 K, 6000 kPa, Fluid (supercritical or subcritical phases) | 174.49
609.14 K, 5000 kPa, Fluid (supercritical or subcritical phases) | 187.44
610.53 K, 4000 kPa, Fluid (supercritical or subcritical phases) | 204.31
616.46 K, 7000 kPa, Fluid (supercritical or subcritical phases) | 175.98
617.13 K, 6000 kPa, Fluid (supercritical or subcritical phases) | 187.48
618.08 K, 5000 kPa, Fluid (supercritical or subcritical phases) | 199.99
618.29 K, 4000 kPa, Fluid (supercritical or subcritical phases) | 213.66
626.75 K, 7000 kPa, Fluid (supercritical or subcritical phases) | 188.95
627.35 K, 6000 kPa, Fluid (supercritical or subcritical phases) | 199.55
628.15 K, 5000 kPa, Fluid (supercritical or subcritical phases) | 210.83
629.14 K, 4000 kPa, Fluid (supercritical or subcritical phases) | 222.93
636.88 K, 6000 kPa, Fluid (supercritical or subcritical phases) | 207.42
636.88 K, 7000 kPa, Fluid (supercritical or subcritical phases) | 199.92
638.41 K, 5000 kPa, Fluid (supercritical or subcritical phases) | 218.7
639.77 K, 4000 kPa, Fluid (supercritical or subcritical phases) | 229.85
645.57 K, 5000 kPa, Fluid (supercritical or subcritical phases) | 222.56
645.57 K, 6000 kPa, Fluid (supercritical or subcritical phases) | 213.28
645.57 K, 7000 kPa, Fluid (supercritical or subcritical phases) | 204.49
646.51 K, 4000 kPa, Fluid (supercritical or subcritical phases) | 233.5
656.29 K, 5000 kPa, Fluid (supercritical or subcritical phases) | 226.62
656.29 K, 7000 kPa, Fluid (supercritical or subcritical phases) | 208.95
656.31 K, 6000 kPa, Fluid (supercritical or subcritical phases) | 217.14
657.59 K, 4000 kPa, Fluid (supercritical or subcritical phases) | 237.14
669.94 K, 5000 kPa, Fluid (supercritical or subcritical phases) | 230.37
669.94 K, 7000 kPa, Fluid (supercritical or subcritical phases) | 211.48
669.98 K, 6000 kPa, Fluid (supercritical or subcritical phases) | 220.01
670.97 K, 4000 kPa, Fluid (supercritical or subcritical phases) | 240.91
680.25 K, 5000 kPa, Fluid (supercritical or subcritical phases) | 233.53
680.27 K, 4000 kPa, Fluid (supercritical or subcritical phases) | 242.88
680.27 K, 7000 kPa, Fluid (supercritical or subcritical phases) | 215.49
680.32 K, 6000 kPa, Fluid (supercritical or subcritical phases) | 223.86
